Reference: PMC13032676, “PGM1 deficiency is linked to sarcomeric and mitochondrial dysfunction in patient-derived iPSC-cardiomyocytes” (Journal of Translational Medicine, 2026)
Entries after “also recorded” stand apart in the source; their conditions may differ.

Assays:
human PGM1 = target: T1, human PGM1 (Homo sapiens, UniProt P36871); assay: Microscale-thermophoresis binding of ZM peptides to PGM1; settings: His6-PGM1 labeled with RED-tris-NTA, 50 nM labeled PGM1, peptide 375 mM to 11.4 nM (16-step series), 10 min in the dark, 22 °C, 40% excitation power, 40% MST power, MO.Affinity v.2.2.4
T1 construct: made in house
T1 sequence (P36871 1-562): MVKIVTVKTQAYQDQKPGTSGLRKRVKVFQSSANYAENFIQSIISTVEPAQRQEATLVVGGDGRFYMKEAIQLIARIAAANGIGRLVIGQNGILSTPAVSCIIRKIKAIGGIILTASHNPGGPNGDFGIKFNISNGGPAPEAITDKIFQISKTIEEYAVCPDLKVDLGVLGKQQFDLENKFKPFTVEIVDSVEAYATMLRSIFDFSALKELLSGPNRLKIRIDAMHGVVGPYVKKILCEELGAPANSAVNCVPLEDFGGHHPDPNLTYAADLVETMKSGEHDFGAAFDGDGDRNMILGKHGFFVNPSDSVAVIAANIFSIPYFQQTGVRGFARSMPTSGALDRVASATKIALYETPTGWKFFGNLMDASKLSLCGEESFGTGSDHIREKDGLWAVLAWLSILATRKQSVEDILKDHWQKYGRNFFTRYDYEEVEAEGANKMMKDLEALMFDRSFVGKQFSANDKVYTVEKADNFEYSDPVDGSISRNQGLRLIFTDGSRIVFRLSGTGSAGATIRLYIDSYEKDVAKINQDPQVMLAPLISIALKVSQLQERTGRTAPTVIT
From the text: For microscale-thermophoresis studies, a peptide representing the conserved Zasp motif (ZM) of ZASP/Cypher (26-mer: […]) and a corresponding peptide with the T106I mutation (underscored in sequence) were synthesized by ABI Scientific. A vector for recombinant expression of human PGM1 has been previously described. PGM1 was expressed and purified as previously described.
For binding studies, PGM1 was labeled using a commercial kit (NanoTemper Technologies, Inc.) according to the manufacturer’s specifications. Briefly, PGM1 was incubated at room temperature for 30 min with RED-tris-NTA dye, which specifically labels His6 tags, resulting in 100 nM labeled protein. The wild-type and T106I ZM peptides were serially diluted into a series of 16 PCR strip tubes and mixed 1:1 with labeled PGM1. The final concentration series of each peptide was […] to 11.4 nM, with all tubes containing 50 nM labeled PGM1. Samples were incubated in the dark for 10 min prior to use. Standard capillaries (Nanotemper MO-K022) were used to draw up the liquid and placed onto the sample tray of the Monolith NT.115 instrument (NanoTemper). Measurements were performed at 22 °C with control software at 40% excitation power and 40% MST power. Kd values were calculated using the MO. Affinity software v.2.2.4 (NanoTemper Technologies).

[1] = tested on: PGM1-deficient fibroblasts; settings: ref [5], [61]; cited from earlier work
From the text: First, we performed targeted tracer metabolomics studies of central carbon metabolism. Previously, decreased UDP-Hexose levels were linked to reduced glycosylation in PGM1-CDG, which improve in presence of galactose.

PGM1-CDG individuals = settings: [5], [10], [11], [13] (b5), ref [7], cited from earlier work
PGM1-deficient iCMs = assay: Untargeted N-glycoproteomics; assay type: cell-based, human; settings: low galactose in culture medium (in-house estimate 0.5 mM), no galactose-free arm
Protocol: Untargeted proteomics and N-glycoproteomics were performed to assess the (glyco)protein expression changes between PGM1-deficient and CTR iCMs based on previously published protocols (see supplementary materials for details).
Proteomics and N-glycoproteomics data analysis was performed as described previously. The proteomics data were searched using Sequest search engine in Proteome Discoverer 3.0 against the human Uniprot protein database. The N-glycoproteomics data using the publicly available software pGlyco version 3 with an in-built N-glycan database for identifying glycans and human Uniprot protein database for identifying peptide sequence. Two missed cleavages were allowed for both proteomics and glycoproteomics analysis. Error tolerance for precursor and fragment ions were set to 10 ppm and 0.02 Da, respectively, for proteomics and 10 ppm and 20 ppm, respectively, for glycoproteomics. […] For proteomics, quantitation of peptides across PGM1-CDG and […] was done using TMT reporter ion intensities using “reporter ion quantifier” node. To quantify glycopeptides, reporter ion quantification was performed for glycoproteomics raw files in Proteome Discoverer and glycopeptide IDs obtained from pGlyco were matched with quantitation on a scan-to-scan basis (MS/MS). […]

| Compound | in vitro binding affinity to PGM1 (Kd, in words) (human PGM1) | effect on UDP-hexose levels (in words) [1] | effect on cardiac (and skeletal muscle) manifestations (in words) (PGM1-CDG individuals; galactose therapy in PGM1-CDG, ref [3], [7], [18]) | effect on glycosylation and systemic features (in words) (PGM1-CDG individuals; oral galactose supplementation in PGM1-CDG, ref [1], [3], [12]) | effect on glycosylation (in words) (PGM1-deficient iCMs) |
| --- | --- | --- | --- | --- | --- |
| SSQPRQYNNPIGLYSAETLREMAQMY [wild-type ZM peptide, peptide representing the conserved Zasp motif (ZM) of ZASP/Cypher (26-mer)] | high-affinity binding (low µM) |  |  |  |  |
| LDB3 T206I mutant: corresponding peptide with the T106I mutation; dilated cardiomyopathy-associated LDB3 T206I mutant peptide (SSQPRQYNNPIGLYSAEILREMAQMY) | substantially reduced binding affinity (high µM) |  |  |  |  |
| O=C[C@H](O)[C@@H](O)[C@@H](O)[C@H](O)CO [galactose] |  | normalize UDP-hexose levels in PGM1-deficient fibroblasts | fails to ameliorate cardiac and skeletal muscle involvement; also recorded: cardiac involvement does not respond to galactose therapy; also recorded: cardiac manifestations remain largely refractory to treatment | improves systemic features; also recorded: effective correction of glycosylation defects and improvement of systemic clinical features | partially restores glycosylation in PGM1-deficient iCMs; also recorded: sufficient to partially restore glycosylation in PGM1-deficient iCMs |
